Measurements from the supplement of paper PMC10307832.

Assays:
Experiment in all cases: relative viability (nuclei count vs DMSO), 5 days (fraction); higher = more cells survive
NCI-H522 = system: NCI-H522
Method in brief: (§1)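 After 5 days of treatment, lung cancer cells in 1536-well plates were fixed and stained in a single step (final 0.05% Triton X-100, 1% formaldehyde, 1 ug/ml Hoechst) and their nuclei counted on 4× images. Treatment had been applied by pin tool the day after seeding as one drug alone or as a fixed anchor-drug dose with five library-drug doses (not always all listed) in √10 steps. Relative viability is the nuclei count of treated wells divided by that of vehicle wells, and values are medians of duplicate plates.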

NCI-H1355 = system: NCI-H1355
Method in brief: as §1

LK-2 = system: LK-2
Method in brief: as §1

NCI-H1648 = system: NCI-H1648
Method in brief: as §1

LCLC-103H = system: LCLC-103H
Method in brief: as §1

NCI-H1703 = system: NCI-H1703
Method in brief: as §1

COR-L 105 = system: COR-L 105
Method in brief: as §1

IA-LM = system: IA-LM
Method in brief: as §1

NCI-H520 = system: NCI-H520
Method in brief: as §1

Compound: O=c1cc(-c2cccc3c2Sc2ccccc2S3)oc(N2CCOCC2)c1 + NC(=O)Nc1cc(-c2cccc(F)c2)sc1C(=O)N[C@H]1CCCNC1 [AZD7762] (partner 0.2 µM)
- relative viability (NCI-H522; first compound 0.08 µM): 0.821
- relative viability (NCI-H522; first compound 0.253 µM): 0.926
- relative viability (NCI-H522; first compound 0.8 µM): 0.864
- relative viability (NCI-H522; first compound 2.53 µM): 0.654
- relative viability (NCI-H522; first compound 8 µM): 0.813
- relative viability (NCI-H1355; first compound 0.08 µM): 0.703
- relative viability (NCI-H1355; first compound 0.253 µM): 0.915
- relative viability (NCI-H1355; first compound 0.8 µM): 0.743
- relative viability (NCI-H1355; first compound 2.53 µM): 0.554
- relative viability (NCI-H1355; first compound 8 µM): 0.756
- relative viability (LK-2; first compound 0.08 µM): 0.468
- relative viability (LK-2; first compound 0.253 µM): 0.331
- relative viability (LK-2; first compound 0.8 µM): 0.374
- relative viability (LK-2; first compound 2.53 µM): 0.219
- relative viability (LK-2; first compound 8 µM): 0.458
- relative viability (NCI-H1648; first compound 0.253 µM): 0.694
- relative viability (NCI-H1648; first compound 0.8 µM): 0.734
- relative viability (NCI-H1648; first compound 8 µM): 0.69
- relative viability (LCLC-103H; first compound 0.08 µM): 0.717
- relative viability (LCLC-103H; first compound 0.253 µM): 0.825
- relative viability (LCLC-103H; first compound 0.8 µM): 0.866
- relative viability (LCLC-103H; first compound 2.53 µM): 0.784
- relative viability (LCLC-103H; first compound 8 µM): 0.822
- relative viability (NCI-H1703; first compound 0.253 µM): 0.13
- relative viability (NCI-H1703; first compound 2.53 µM): 0.098
- relative viability (NCI-H1703; first compound 8 µM): 0.116

Compound: CCN(CC)CCCCNc1ncc2cc(-c3cc(OC)cc(OC)c3)c(NC(=O)NC(C)(C)C)nc2n1 + O=C(CCCCCCC(=O)Nc1ccccc1)NO [Vorinostat] (partner 1 µM)
- relative viability (NCI-H522; first compound 0.01 µM): 0.891
- relative viability (NCI-H522; first compound 0.03162 µM): 0.835
- relative viability (NCI-H522; first compound 0.1 µM): 1.19
- relative viability (NCI-H522; first compound 0.3162 µM): 0.948
- relative viability (NCI-H522; first compound 1 µM): 0.962
- relative viability (COR-L 105; first compound 0.01 µM): 0.771
- relative viability (COR-L 105; first compound 0.03162 µM): 0.774
- relative viability (COR-L 105; first compound 0.1 µM): 0.981
- relative viability (COR-L 105; first compound 0.3162 µM): 0.796
- relative viability (COR-L 105; first compound 1 µM): 0.805
- relative viability (NCI-H1355; first compound 0.01 µM): 0.647
- relative viability (NCI-H1355; first compound 0.03162 µM): 0.654
- relative viability (NCI-H1355; first compound 0.1 µM): 0.67
- relative viability (NCI-H1355; first compound 0.3162 µM): 0.657
- relative viability (NCI-H1355; first compound 1 µM): 0.616
- relative viability (LK-2; first compound 0.01 µM): 0.266
- relative viability (LK-2; first compound 0.03162 µM): 0.213
- relative viability (LK-2; first compound 0.1 µM): 0.2
- relative viability (LK-2; first compound 0.3162 µM): 0.235
- relative viability (LK-2; first compound 1 µM): 0.252
- relative viability (IA-LM; first compound 0.01 µM): 0.963
- relative viability (IA-LM; first compound 0.03162 µM): 0.836
- relative viability (IA-LM; first compound 0.1 µM): 0.852
- relative viability (IA-LM; first compound 0.3162 µM): 1.26
- relative viability (IA-LM; first compound 1 µM): 0.979
- relative viability (NCI-H1648; first compound 0.01 µM): 0.48
- relative viability (NCI-H1648; first compound 0.03162 µM): 0.352
- relative viability (NCI-H1648; first compound 0.1 µM): 0.666
- relative viability (NCI-H1648; first compound 0.3162 µM): 0.602
- relative viability (NCI-H1648; first compound 1 µM): 0.327
- relative viability (NCI-H520; first compound 0.01 µM): 0.783
- relative viability (NCI-H520; first compound 0.03162 µM): 0.731
- relative viability (NCI-H520; first compound 0.1 µM): 0.673
- relative viability (NCI-H520; first compound 0.3162 µM): 0.633
- relative viability (NCI-H520; first compound 1 µM): 0.273
- relative viability (LCLC-103H; first compound 0.01 µM): 0.776
- relative viability (LCLC-103H; first compound 0.03162 µM): 0.805
- relative viability (LCLC-103H; first compound 0.1 µM): 0.775
- relative viability (LCLC-103H; first compound 0.3162 µM): 0.788
- relative viability (LCLC-103H; first compound 1 µM): 0.769

Compound: O=c1cc(N2CCOCC2)oc2c(-c3cccc4c3sc3ccccc34)cccc12 + O=C(CCCCCCC(=O)Nc1ccccc1)NO [Vorinostat] (partner 1 µM)
- relative viability (NCI-H522; first compound 0.01 µM): 0.986
- relative viability (NCI-H522; first compound 0.03162 µM): 0.932
- relative viability (NCI-H522; first compound 0.1 µM): 0.864
- relative viability (NCI-H522; first compound 0.3162 µM): 0.873
- relative viability (NCI-H522; first compound 1 µM): 0.666
- relative viability (COR-L 105; first compound 0.01 µM): 0.764
- relative viability (COR-L 105; first compound 0.03162 µM): 0.788
- relative viability (COR-L 105; first compound 0.1 µM): 0.899
- relative viability (COR-L 105; first compound 0.3162 µM): 0.911
- relative viability (COR-L 105; first compound 1 µM): 0.918
- relative viability (NCI-H1355; first compound 0.01 µM): 0.681
- relative viability (NCI-H1355; first compound 0.03162 µM): 0.613
- relative viability (NCI-H1355; first compound 0.1 µM): 0.598
- relative viability (NCI-H1355; first compound 0.3162 µM): 0.663
- relative viability (NCI-H1355; first compound 1 µM): 0.598
- relative viability (LK-2; first compound 0.01 µM): 0.343
- relative viability (LK-2; first compound 0.03162 µM): 0.267
- relative viability (LK-2; first compound 0.1 µM): 0.345
- relative viability (LK-2; first compound 0.3162 µM): 0.233
- relative viability (LK-2; first compound 1 µM): 0.27
- relative viability (IA-LM; first compound 0.01 µM): 0.965
- relative viability (IA-LM; first compound 0.03162 µM): 0.986
- relative viability (IA-LM; first compound 0.1 µM): 0.907
- relative viability (IA-LM; first compound 0.3162 µM): 0.901
- relative viability (IA-LM; first compound 1 µM): 0.909
- relative viability (NCI-H1648; first compound 0.03162 µM): 0.577
- relative viability (NCI-H1648; first compound 0.1 µM): 0.438
- relative viability (NCI-H1648; first compound 0.3162 µM): 0.419
- relative viability (NCI-H1648; first compound 1 µM): 0.689
- relative viability (NCI-H520; first compound 0.01 µM): 0.775
- relative viability (NCI-H520; first compound 0.03162 µM): 0.755
- relative viability (NCI-H520; first compound 0.1 µM): 0.689
- relative viability (NCI-H520; first compound 0.3162 µM): 0.728
- relative viability (NCI-H520; first compound 1 µM): 0.794
- relative viability (LCLC-103H; first compound 0.01 µM): 0.739
- relative viability (LCLC-103H; first compound 0.03162 µM): 0.824
- relative viability (LCLC-103H; first compound 0.1 µM): 0.826
- relative viability (LCLC-103H; first compound 0.3162 µM): 0.826
- relative viability (LCLC-103H; first compound 1 µM): 0.857
